Experiments:
[1] = Dynamic moisture sorption assessment; type: physicochemical
Protocol: Dynamic moisture sorption (DMS) measurement was performed using a VTI atmospheric microbalance, SGA-100 system (VTI Corp., Hialeah, Fla. 33016). A weighed sample was used and the humidity was lowest possible value (close to 0% RH) at the start of the analysis. The DMS analysis consisted of an initial drying step (˜0% RH) for 16 hours, followed by two cycles of sorption and desorption with a scan rate of 5% RH/step over the humidity range of 5% RH to 90% RH. The DMS run was performed isothermally at 25° C.

[2] = system: patients with steroid-refractory acute or chronic GVHD; conditions: 95 patients, salvage therapy, including lung GVHD; cited from earlier work
Lung S9 metabolism = type: in vitro ADME, human; conditions: for Compound Remaining at 60 min: human lung S9, 1 μM compound, 1 mg/mL protein, NADPH and PAPS; for Sulfate Appearance: human lung S9, qualitative, O-sulfate metabolite peak
Protocol: The in vitro metabolic stability of compounds 1 and C-1 were evaluated in human lung S9 fraction (1 μM compound; 1 mg/mL S9 protein). The time 0, 15, 30, and 60 minute samples were analyzed for parent compound by high resolution LC-MS/MS. Lung S9 fractions from human (lot 1410245) were purchased from XenoTech LLC (Lenexa, Kans.). NADPH (Sigma Aldrich, N1630) and 3-phosphoadenosine 5-phosphosulfate (PAPS) (Sigma Aldrich, A1651) were purchased from Sigma Aldrich (St. Louis, Mo.). Acetonitrile and water were obtained from VWR (Radnor, Pa.) and were of HPLC grade or better. Raloxifene and formic acid was purchased from Sigma Aldrich (St. Louis, Mo.). Lung S9 incubations were performed in a water bath at 37° C. in a 96-well polypropylene plate. Lung S9 solutions consisted of 100 mM potassium phosphate buffered to pH 7.4 (BD Biosciences, Woburn, Mass.) supplemented with 1 mM NADPH (Sigma-Aldrich, St. Louis, Mo.), 3 mM magnesium chloride (Sigma Aldrich, M1028) and in the presence of 100 μM PAPS (Sigma-Aldrich, St. Louis, Mo.) cofactor, with final incubation protein concentrations of 1 mg/mL. 10 mM DMSO stocks of Raloxifene (n=1) and compound (n=1) were diluted in buffer and spiked into the incubations to yield 1 μM substrate concentrations ([…]). Incubation volumes consisted of 400 μL and time points were taken at 0, 15, 30, and 60 minutes by the removal of a 70 μL aliquot and dilution into 140 μL acetonitrile (0% formic acid). All samples were centrifuged at 2250 g for 10 minutes at 5° C. Supernatant (50 μL) was taken from the centrifuged samples and diluted into 100 μL HPLC water containing internal standard. The samples were run on a Dionex Ultimate 3000 Auto sampler and analyzed using a Thermo Q-Exactive High Resolution Mass Spectrometer (Thermo, Waltham, Mass.) in Full Scan mode in conjunction with an Atlantis T3 column 3 μM-2.1×50 mm (Waters Inc., 186003717). Mobile Phase A consisted of Water+0.2% formic acid and Mobile Phase B consisted of acetonitrile+0.2% formic acid. Peak integration was accomplished using Gubbs GMSU software (Gubbs Inc., Alpharetta, Ga.). For each sample, peak area ratios were calculated by dividing the analyte peak area by the internal standard peak area. For each incubation, the peak area ratios of the analytes in each t0 was set to 100%, and the peak areas ratios from the 60-minute samples were converted to percentages remaining relative to the corresponding t0. Determination of sulfate metabolite formation was made qualitatively by observation of early-eluting peak in the parent ion channel which, based on historical internal data, corresponded to the O-sulfate metabolite of each parent compound.

[3] = system: IL-13 induced pSTAT6 in lung tissue; assay: Murine model of IL-13 induced pSTAT6 induction in lung tissue; type: in vivo; conditions: mouse lung, oral aspiration 1 mg/mL 50 μL, IL-13 challenge 4 h after dose
Protocol: IL-13 binds to cell surface receptors activating members of the Janus family of kinases (JAK) which then phosphorylate STAT6 and subsequently activates further transcription pathways. In the described model, a dose of IL-13 was delivered locally into the lungs of mice to induce the phosphorylation of STAT6 (pSTAT6) which is then measured as the endpoint.
Activity in the model is evidenced by a decrease in the level of pSTAT6 present in the lungs of treated animals at 5 hours compared to the vehicle treated, IL-13 challenged control animals. The difference between the control animals which were vehicle-treated, IL-13 challenged and the control animals which were vehicle-treated, vehicle challenged dictated the 0% and 100% inhibitory effect, respectively, in any given experiment.

[4] = Pharmacokinetics in plasma and lung in mouse; type: in vivo; conditions: single oral aspiration, 0.2 mg/mL 50 μL
Protocol: Plasma and lung concentrations of test compound and ratio thereof were determined in the following manner. BALB/c mice from Charles River Laboratories were used in the assay. […] At various time points (typically 0.167, 2, 6, 24 hr) post dosing, blood samples were removed via cardiac puncture and intact lungs were excised from the mice.

[5] = Stability study at accelerated temperature and relative humidity (HPLC); type: physicochemical; conditions: samples of Form I
[6] = system: hospitalized patients with COVID-19; conditions: in combination with remdesivir versus placebo with remdesivir, within 29 days after initiating treatment; cited from earlier work

For `CCc1cc(O)ccc1-c1ccc2c(-c3nc4c([nH]3)CN(C(C)C)[C@H](C(=O)N3CC(N(C)C)C3)C4)n[nH]c2c1` [Form I, (S)-(3-(dimethylamino)azetidin-1-yl)(2-(6-(2-ethyl-4-hydroxyphenyl)-1H-indazol-3-yl)-5-isopropyl-4,5,6,7-tetrahydro-3H-imidazo[4,5-c]pyridin-6-yl)methanone hydrate Form I], the hygroscopicity ([1]; dynamic moisture sorption, 25° C.) was “moderately hygroscopic” and the total moisture uptake ([1]; relative humidity between 0% and 90% at room temperature) was “about 5.3%”.

In the case of `N#CC[C@H](C1CCCC1)n1cc(-c2ncnc3[nH]ccc23)cn1` [ruxolitinib], the “clinical response in GVHD patients” value [2] is given as “complete or partial response to ruxolitinib in the majority of patients”.

For `CCc1cc(O)c(F)cc1-c1ccc2c(-c3nc4c([nH]3)CN(C(C)C)[C@H](C(=O)N3CC(N(C)C)C3)C4)n[nH]c2c1` [Compound C-1, (S)-(3-(dimethylamino)azetidin-1-yl)(2-(6-(2-ethyl-5-fluoro-4-hydroxyphenyl)-1H-indazol-3-yl)-5-isopropyl-4,5,6,7-tetrahydro-3H-imidazo[4,5-c]pyridin-6-yl)methanone, reference compound], the “Compound Remaining at 60 min” value (Lung S9 metabolism) was 6% and the “Sulfate Appearance” value (Lung S9 metabolism) was “Yes”.

In the case of `CCc1cc(O)ccc1-c1ccc2c(-c3nc4c([nH]3)CN(C(C)C)[C@H](C(=O)N3CC(N(C)C)C3)C4)n[nH]c2c1` [Compound 1, (S)-(3-(dimethylamino)azetidin-1-yl)(2-(6-(2-ethyl-4-hydroxyphenyl)-1H-indazol-3-yl)-5-isopropyl-4,5,6,7-tetrahydro-3H-imidazo[4,5-c]pyridin-6-yl)methanone], the “pSTAT6 inhibition at 5 hours” value [3] is reported as 75, the “sulfation metabolism compared to fluoro analog C-1” value (Lung S9 metabolism; human lung S9) is reported as “significantly less sulfation metabolism” and the “Compound Remaining at 60 min” value (Lung S9 metabolism) is reported as 81%. For the same molecule, the “Sulfate Appearance” value (Lung S9 metabolism) was “Yes”, the “Lung Tissue AUC(0-24)” value [4] was 54.5 µg·h/g and the “Compound 1 content by HPLC” value ([5]; T = 0) was 97.5% a/a. For the same molecule, the “Compound 1 content by HPLC” value ([5]; T = 1 month, 40° C./75% RH) was 97.5% a/a, the “Compound 1 content by HPLC” value ([5]; T = 3 month, 25° C./60% RH) was 97.6% a/a and the “Compound 1 content by HPLC” value ([5]; T = 3 month, 40° C./75% RH) was 97.5% a/a.

For `CCS(=O)(=O)N1CC(CC#N)(n2cc(-c3ncnc4[nH]ccc34)cn2)C1` [baricitinib], the time to recovery [6] is listed as “reduce time to recovery”.
